# Measured values as given in PubChem BioAssay (NCI).
#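 In this assay, cells in 96-well plates receive the compound at five concentrations for 48 hours. Endpoints are linearly interpolated between the surrounding concentrations. Abbreviation: GI50, concentration required for 50% inhibition of growth. The concentration for full growth arrest is given as TGI.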
# What was measured:
# Assay in all cases: NCI-60 cell line screen, 48 h
# TK-10 renal = tested on: TK-10 renal
# NCI-H23 lung = tested on: NCI-H23 lung
# SK-MEL-5 melanoma = tested on: SK-MEL-5 melanoma
# K-562 leukemia = tested on: K-562 leukemia
# HOP-62 NSCLC = tested on: HOP-62 NSCLC
# SK-MEL-2 melanoma = tested on: SK-MEL-2 melanoma
# HCT-15 colon = tested on: HCT-15 colon
# HS 578T breast = tested on: HS 578T breast
# HL-60(TB) leukemia = tested on: HL-60(TB) leukemia
# A498 renal = tested on: A498 renal
# NCI-H226 lung = tested on: NCI-H226 lung
# HOP-92 NSCLC = tested on: HOP-92 NSCLC
# NCI-H522 lung = tested on: NCI-H522 lung
# 786-0 renal = tested on: 786-0 renal
# HCC-2998 colon = tested on: HCC-2998 colon
# EKVX NSCLC = tested on: EKVX NSCLC
# SF-295 CNS = tested on: SF-295 CNS
# UACC-257 melanoma = tested on: UACC-257 melanoma
# BT-549 breast = tested on: BT-549 breast
# CCRF-CEM leukemia = tested on: CCRF-CEM leukemia
# OVCAR-3 ovarian = tested on: OVCAR-3 ovarian
# T-47D breast = tested on: T-47D breast
# U251 CNS = tested on: U251 CNS
# SNB-19 CNS = tested on: SNB-19 CNS
# OVCAR-4 ovarian = tested on: OVCAR-4 ovarian
# OVCAR-5 ovarian = tested on: OVCAR-5 ovarian
# SK-MEL-28 melanoma = tested on: SK-MEL-28 melanoma
# SN12C renal = tested on: SN12C renal
# M14 melanoma = tested on: M14 melanoma
compound,measurement,setting,value
COc1ccc2c(c1)C(=O)/C(=C/c1cccc(OCC(=O)Nc3nc4c(s3)CCCC4)c1)O2,GI50,TK-10 renal,450 nM
same,TGI,TK-10 renal,934 nM
same,GI50,NCI-H23 lung,636 nM
same,TGI,NCI-H23 lung,5.62 µM
same,GI50,SK-MEL-5 melanoma,6.08 µM
same,TGI,SK-MEL-5 melanoma,19.4 µM
same,GI50,K-562 leukemia,1000 nM
same,TGI,K-562 leukemia,> 23 µM
same,GI50,HOP-62 NSCLC,290 nM
same,TGI,HOP-62 NSCLC,10.4 µM
same,GI50,SK-MEL-2 melanoma,577 nM
same,TGI,SK-MEL-2 melanoma,1340 nM
same,GI50,HCT-15 colon,1540 nM
same,TGI,HCT-15 colon,3.19 µM
same,GI50,HS 578T breast,2280 nM
same,TGI,HS 578T breast,10.1 µM
same,GI50,HL-60(TB) leukemia,241 nM
same,TGI,HL-60(TB) leukemia,681 nM
same,GI50,A498 renal,14.3 µM
same,TGI,A498 renal,27.7 µM
same,GI50,NCI-H226 lung,11.3 µM
same,TGI,NCI-H226 lung,42.1 µM
same,GI50,HOP-92 NSCLC,180 nM
same,TGI,HOP-92 NSCLC,372 nM
same,GI50,NCI-H522 lung,704 nM
same,TGI,NCI-H522 lung,2250 nM
same,GI50,786-0 renal,150 nM
same,TGI,786-0 renal,346 nM
same,GI50,HCC-2998 colon,1830 nM
same,TGI,HCC-2998 colon,3.44 µM
same,GI50,EKVX NSCLC,2520 nM
same,TGI,EKVX NSCLC,8.73 µM
same,GI50,SF-295 CNS,3.7 µM
same,TGI,SF-295 CNS,15.8 µM
same,GI50,UACC-257 melanoma,11.2 µM
same,TGI,UACC-257 melanoma,24.4 µM
same,GI50,BT-549 breast,1740 nM
same,TGI,BT-549 breast,4.49 µM
same,GI50,CCRF-CEM leukemia,863 nM
same,TGI,CCRF-CEM leukemia,> 100 µM
same,GI50,OVCAR-3 ovarian,304 nM
same,TGI,OVCAR-3 ovarian,865 nM
same,GI50,T-47D breast,1930 nM
same,TGI,T-47D breast,4.34 µM
same,GI50,U251 CNS,772 nM
same,TGI,U251 CNS,4.97 µM
same,GI50,SNB-19 CNS,13.9 µM
same,TGI,SNB-19 CNS,30.4 µM
same,GI50,OVCAR-4 ovarian,2570 nM
same,TGI,OVCAR-4 ovarian,8.52 µM
same,GI50,OVCAR-5 ovarian,1690 nM
same,TGI,OVCAR-5 ovarian,3.61 µM
same,GI50,SK-MEL-28 melanoma,1580 nM
same,TGI,SK-MEL-28 melanoma,3.22 µM
same,GI50,SN12C renal,1630 nM
same,TGI,SN12C renal,6.81 µM
same,GI50,M14 melanoma,1810 nM
